Like-named read-outs stand apart in the source and are kept apart here.
Tested on: p21 induction in HCT 116 cells
Test: p21 induction in cells (In-Cell Western, p21/GAPDH ratio)
Assay type: cell-based
Conditions: 24 h compound incubation, read-out: p21_EC50
Method: The colon carcinoma cell line HCT 116 was obtained from ATCC and cultured in growth medium consisting of Mccoy's 5A Medium (Gibco 16600108) supplemented with 10% FBS (Transgene FS201-02) and 100 units/mL penicillin-streptomycin (Gibco 15140122) and maintained at 37° C. under 5% CO2. On the day of seeding, 2,000 cells in 30 μL of culture media were plated per well to Poly-D-Lysine 384 Well Black Clear Plates (Biocoat 356663) and incubated overnight at 37° C. under 5% CO2. The following day, compounds were serially diluted in DMSO for a total of 11 test concentrations. The typical starting concentration of compounds was 10 μM with 2-fold dilutions. Next, 150 nL of diluted compound was added in duplicate to the assay plate, using an Echo 655 (Labcyte). The plate was centrifuged at 500 RPM for 1 min and then incubated at 37° C. under 5% CO2 for 24 h. After 24 h, medium was removed, and cells were fixed by adding 40 μL of 4% paraformaldehyde solution to each well and incubated for 20 min at room temperature. The plate was then washed 4 times with 100 μL per well of wash buffer (PBS with 0.1% Tween-20) using a microplate washer. Next, 30 μL of ice-cold methanol was added to each well and the plate was incubated at −20° C. for 10 min. The plate was washed 4 times with 100 μL per well of wash buffer by a microplate washer, then 30 μL per well of blocking buffer ((Intercept PBS blocking buffer (LI-COR 927-70001) with 0.05% Tween-20)) was added and the plate was incubated at room temperature with shaking for 2 h. Next, to each test well, 20 μL of primary antibody solution (p21 Wafl/CIP (12D1) RabbitmAb (Cell Signaling Technologies 2947) diluted 1:1000 and GAPDH (D4C6R) Mouse mAb (Cell Signaling Technologies 97166) diluted 1:2000 in blocking buffer) was added and the plate was placed at 4° C., overnight. The following day, the plate was washed 5 times with 100 μL per well of wash buffer using a microplate washer for 5 min. 20 μL per well of secondary antibody (IRDye 680CW Goat anti-Mouse IgG (H+L) (LI-COR 926-68070) diluted 1:2000 in Blocking Buffer and IRDye 800CW Goat anti-Rabbit IgG (H+L) (LI-COR 926-32211) diluted 1:2000 in Blocking Buffer) was then added and the plate was stored for 2 h in the dark at room temperature with shaking. The plate was then washed 4 times with 100 μL per well of wash buffer again using a microplate washer. Finally, the p21 signal and the GAPDH signal were quantified using a LI-COR Odyssey CLx Imager machine reading at 800 nm and 700 nm, respectively. Each plate contained DMSO control (low control) and an internal reference WRN inhibitor (high control) respectively. For quantitation, the 800 nm/700 nm ratio was calculated for each well to give fold p21 induction and then percent activation for each compound well was calculated as follows (100×(ratio cpd well-ratio low control)/(ratio high control−ratio low control). EC50 values for each compound was generated after non-linear regression curve fitting using commercially available software.

| EC50 [nM] | EC50 (Homo sapiens) [nM] | SMILES |
| --- | --- | --- |
| ≤ 500 |  | CCc1c(N2CCN(C(=O)c3ncnc(C)c3O)[C@H]3CC[C@@H]32)c(=O)c2nn([C@@H]3CC3(F)F)nc2n1CC(=O)Nc1ccc(C(F)(F)F)cc1Cl (single isomer, unassigned) [Compound I-216] |
|  | ≤ 500 | CCc1c(N2CCN(C(=O)c3ncnc(C)c3O)[C@H]3CCC[C@@H]32)c(=O)c2nn(-c3ccnc(OC)c3)nc2n1CC(=O)NC12CC(C3CC3)(C1)C2 [Compound I-33, 2-{6-[(4aS,7aS)-4-(5-hydroxy-6-methylpyrimidine-4-carbonyl)-octahydro-1H-cyclopenta[b]pyrazin-1-yl]-5-ethyl-2-(2-methoxypyridin-4-yl)-7-oxo-2H,4H,7H-[1,2,3]triazolo[4,5-b]pyridin-4-yl}-N-{3-cyclopropylbicyclo[1.1.1]pentan-1-yl}acetamide] |
|  | 500 to 2000 | CCc1c(N2CCN(C(=O)c3ncnc(C)c3O)CC2)c(=O)c2nn(C3=CCOCC3)nc2n1CC(=O)NC12CC(C(C)C)(C1)C2 [Compound I-38, 2-[2-(3,6-dihydro-2H-pyran-4-yl)-5-ethyl-6-[4-(5-hydroxy-6-methylpyrimidine-4-carbonyl)piperazin-1-yl]-7-oxo-2H,4H,7H-[1,2,3]triazolo[4,5-b]pyridin-4-yl]-N-[3-(propan-2-yl)bicyclo[1.1.1]pentan-1-yl]acetamide] |
|  | ≤ 500 | CCc1c(N2CCN(C(=O)c3ncnc(C)c3O)[C@H]3CCC[C@@H]32)c(=O)c2nn(C3=CCOCC3)nc2n1CC(=O)NC12CC(C3CC3)(C1)C2 [Compound I-39, 2-{6-[(4aS,7aS)-4-(5-hydroxy-6-methylpyrimidine-4-carbonyl)-octahydro-1H-cyclopenta[b]pyrazin-1-yl]-2-(3,6-dihydro-2H-pyran-4-yl)-5-ethyl-7-oxo-2H,4H,7H-[1,2,3]triazolo[4,5-b]pyridin-4-yl}-N-{3-cyclopropylbicyclo[1.1.1]pentan-1-yl}acetamide] |
|  | ≤ 500 | CCc1c(N2CCN(C(=O)c3ncnc(C)c3O)[C@H]3CC[C@@H]32)c(=O)c2nn(-c3ccnc(OC)c3)nc2n1CC(=O)Nc1ccc(C(F)(F)F)cc1Cl [Compound I-55, N-[2-chloro-4-(trifluoromethyl)phenyl]-2-{5-ethyl-6-[(1S,6S)-5-(5-hydroxy-6-methylpyrimidine-4-carbonyl)-2,5-diazabicyclo[4.2.0]octan-2-yl]-2-(2-methoxypyridin-4-yl)-7-oxo-2H,4H,7H-[1,2,3]triazolo[4,5-b]pyridin-4-yl}acetamide] |
|  | ≤ 500 | CCc1c(N2CCN(C(=O)c3ncnc(C)c3O)[C@H]3CC[C@@H]32)c(=O)c2nn(-c3ccn(C4CC4)n3)nc2n1CC(=O)NC12CC(C(C)C)(C1)C2 [Compound I-60, 2-[2-(1-cyclopropyl-1H-pyrazol-3-yl)-5-ethyl-6-[(1S,6S)-5-(5-hydroxy-6-methylpyrimidine-4-carbonyl)-2,5-diazabicyclo[4.2.0]octan-2-yl]-7-oxo-2H,4H,7H-[1,2,3]triazolo[4,5-b]pyridin-4-yl]-N-[3-(propan-2-yl)bicyclo[1.1.1]pentan-1-yl]acetamide] |
| ≤ 500 |  | CCc1c(N2CCN(C(=O)c3ncnc(C)c3O)[C@H]3CC[C@@H]32)c(=O)c2nn(-c3ccnc(OC)c3)nc2n1CC(=O)NC12CC(C3CCC3)(C1)C2 [Compound I-62, N-{3-cyclobutylbicyclo[1.1.1]pentan-1-yl}-2-{5-ethyl-6-[(1S,6S)-5-(5-hydroxy-6-methylpyrimidine-4-carbonyl)-2,5-diazabicyclo[4.2.0]octan-2-yl]-2-(2-methoxypyridin-4-yl)-7-oxo-2H,4H,7H-[1,2,3]triazolo[4,5-b]pyridin-4-yl}acetamide] |
|  | ≤ 500 | CCc1c(N2CCN(C(=O)c3ncnc(C)c3O)[C@H]3CC[C@@H]32)c(=O)c2nn(C3=CCOC(C)C3)nc2n1CC(=O)NC12CC(C3CC3)(C1)C2 (stereo partly drawn) [Compound I-172, N-{3-cyclopropylbicyclo[1.1.1]pentan-1-yl}-2-{5-ethyl-6-[(1S,6S)-5-(5-hydroxy-6-methylpyrimidine-4-carbonyl)-2,5-diazabicyclo[4.2.0]octan-2-yl]-2-(2-methyl-3,6-dihydro-2H-pyran-4-yl)-7-oxo-2H,4H,7H-[1,2,3]triazolo[4,5-b]pyridin-4-yl}acetamide] |
|  | ≤ 500 | CCc1c(N2CCN(C(=O)c3ncnc(C)c3O)[C@H]3CC[C@@H]32)c(=O)c2nn(C3=CCC(OC)CC3)nc2n1CC(=O)NC12CC(C3CC3)(C1)C2 (stereo partly drawn) [Compound I-173, N-{3-cyclopropylbicyclo[1.1.1]pentan-1-yl}-2-{5-ethyl-6-[(1S,6S)-5-(5-hydroxy-6-methylpyrimidine-4-carbonyl)-2,5-diazabicyclo[4.2.0]octan-2-yl]-2-(4-methoxycyclohex-1-en-1-yl)-7-oxo-2H,4H,7H-[1,2,3]triazolo[4,5-b]pyridin-4-yl}acetamide] |
|  | ≤ 500 | CCc1c(N2CCN(C(=O)c3ncnc(C)c3O)[C@H]3CC[C@@H]32)c(=O)c2nn(-c3ccnc(C(F)(F)F)c3)nc2n1CC(=O)NC12CC(C3CC3)(C1)C2 [Compound I-176, N-{3-cyclopropylbicyclo[1.1.1]pentan-1-yl}-2-{5-ethyl-6-[(1S,6S)-5-(5-hydroxy-6-methylpyrimidine-4-carbonyl)-2,5-diazabicyclo[4.2.0]octan-2-yl]-7-oxo-2-[2-(trifluoromethyl)pyridin-4-yl]-2H,4H,7H-[1,2,3]triazolo[4,5-b]pyridin-4-yl}acetamide] |
|  | ≤ 500 | CCc1c(N2CCN(C(=O)c3ncnc(C)c3O)[C@H]3CC[C@@H]32)c(=O)c2nn(-c3ccnc(C(F)F)c3)nc2n1CC(=O)NC12CC(C3CC3)(C1)C2 [Compound I-182, N-{3-cyclopropylbicyclo[1.1.1]pentan-1-yl}-2-{2-[2-(difluoromethyl)pyridin-4-yl]-5-ethyl-6-[(1S,6S)-5-(5-hydroxy-6-methylpyrimidine-4-carbonyl)-2,5-diazabicyclo[4.2.0]octan-2-yl]-7-oxo-2H,4H,7H-[1,2,3]triazolo[4,5-b]pyridin-4-yl}acetamide] |
|  | ≤ 500 | CCc1c(N2CCN(C(=O)c3c(F)cnc(OC)c3O)[C@H]3CC[C@@H]32)c(=O)c2nn(C3=CCOCC3)nc2n1CC(=O)NC12CC(C3CC3)(C1)C2 [Compound I-183, N-{3-cyclopropylbicyclo[1.1.1]pentan-1-yl}-2-[2-(3,6-dihydro-2H-pyran-4-yl)-5-ethyl-6-[(1S,6S)-5-(5-fluoro-3-hydroxy-2-methoxypyridine-4-carbonyl)-2,5-diazabicyclo[4.2.0]octan-2-yl]-7-oxo-2H,4H,7H-[1,2,3]triazolo[4,5-b]pyridin-4-yl]acetamide] |
|  | ≤ 500 | CCc1c(N2CCN(C(=O)c3ncnc(C)c3O)[C@H]3CC[C@@H]32)c(=O)c2nn(C3=CCN(CC(F)F)CC3)nc2n1CC(=O)NC12CC(C3CC3)(C1)C2 [Compound I-185, N-{3-cyclopropylbicyclo[1.1.1]pentan-1-yl}-2-{2-[1-(2,2-difluoroethyl)-1,2,3,6-tetrahydropyridin-4-yl]-5-ethyl-6-[(1S,6S)-5-(5-hydroxy-6-methylpyrimidine-4-carbonyl)-2,5-diazabicyclo[4.2.0]octan-2-yl]-7-oxo-2H,4H,7H-[1,2,3]triazolo[4,5-b]pyridin-4-yl}acetamide] |

— US20250129069A1, “TRIAZOLO WRN INHIBITORS” (Nimbus Wadjet, Inc., priority 2023, published 2025)
